Data: patent US20100204265A1 (priority 2009, published 2010)

The compounds below were run on ET (Huh-lucubineo-ET) cell line harboring I389luc-ubi-neo/NS3-3′/ET HCV replicon (assay: Replicon assay (HCV replicon, luciferase readout)). Conditions: Hepatitis C virus.
Type: cell-based
In short: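 Compounds at 10-point 2-fold dilutions (overall 0.1 nM to […], 0.5% DMSO) were applied to ET cells carrying a luciferase-neo HCV replicon, seeded a day earlier. After 48-72 hours, luciferase-based % inhibition was fitted with a Hill equation for EC50, and parallel WST-1 readings gave TC50.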
With `COC(=O)CNC(=O)c1cn2cc(-c3ccoc3)cc(C(F)(F)F)c2n1` [Compound 246, [(6-Furan-3-yl-8-trifluoromethyl-imidazo[1,2-a]pyridine-2-carbonyl)-amino]-acetic acid methyl ester] the EC50 was greater than 50 µM. `NC(=O)CNC(=O)c1cn2cc(-c3ccoc3)cc(C(F)(F)F)c2n1` [Compound 247, 6-Furan-3-yl-8-trifluoromethyl-imidazo[1,2-a]pyridine-2-carboxylic acid carbamoylmethyl-amide] was tested, and the EC50 was greater than 50 µM. `CNC(=O)CNC(=O)c1cn2cc(-c3ccoc3)cc(C(F)(F)F)c2n1` [Compound 248, 6-Furan-3-yl-8-trifluoromethyl-imidazo[1,2-a]pyridine-2-carboxylic acid methylcarbamoylmethyl-amide] gave an EC50 greater than 50 µM. `CN(C)C(=O)CNC(=O)c1cn2cc(-c3ccoc3)cc(C(F)(F)F)c2n1` [Compound 249, 6-Furan-3-yl-8-trifluoromethyl-imidazo[1,2-a]pyridine-2-carboxylic acid dimethylcarbamoylmethyl-amide] gave an EC50 greater than 50 µM. `COC(=O)C(C)NC(=O)c1cn2cc(-c3ccoc3)cc(C(F)(F)F)c2n1` (centres unmarked) [Compound 250, 2-[(6-Furan-3-yl-8-trifluoromethyl-imidazo[1,2-a]pyridine-2-carbonyl)-amino]-propionic acid methyl ester] was tested, and the EC50 was greater than 50 µM. Work on `COC(=O)C(CCSC)NC(=O)c1cn2cc(-c3ccoc3)cc(C(F)(F)F)c2n1` (centres unmarked) [Compound 251, 2-[(6-Furan-3-yl-8-trifluoromethyl-imidazo[1,2-a]pyridine-2-carbonyl)-amino]-4-methylsulfanyl-butyric acid methyl ester] yielded an EC50 greater than 50 µM. Compound `COC(=O)C(CO)NC(=O)c1cn2cc(-c3ccoc3)cc(C(F)(F)F)c2n1` (centres unmarked) [Compound 252, 2-[(6-Furan-3-yl-8-trifluoromethyl-imidazo[1,2-a]pyridine-2-carbonyl)-amino]-3-hydroxy-propionic acid methyl ester] has an EC50 greater than 50 µM. For `COC(=O)C(NC(=O)c1cn2cc(-c3ccoc3)cc(C(F)(F)F)c2n1)C(C)O` (centres unmarked) [Compound 253, 2-[(6-Furan-3-yl-8-trifluoromethyl-imidazo[1,2-a]pyridine-2-carbonyl)-amino]-3-hydroxy-butyric acid methyl ester], the EC50 was greater than 50 µM. In the case of `COC(=O)C1CCCN1C(=O)c1cn2cc(-c3ccoc3)cc(C(F)(F)F)c2n1` (centres unmarked) [Compound 254, 1-(6-Furan-3-yl-8-trifluoromethyl-imidazo[1,2-a]pyridine-2-carbonyl)-pyrrolidine-2-carboxylic acid methyl ester], the EC50 is reported as greater than 50 µM. `COC(=O)C(NC(=O)c1cn2cc(-c3ccoc3)cc(C(F)(F)F)c2n1)c1ccccc1` (centres unmarked) [Compound 255, [(6-Furan-3-yl-8-trifluoromethyl-imidazo[1,2-a]pyridine-2-carbonyl)-amino]-phenyl-acetic acid methyl ester] gave an EC50 greater than 50 µM. `COC(=O)C(NC(=O)c1cn2cc(-c3ccoc3)cc(C(F)(F)F)c2n1)C(C)C` (centres unmarked) [Compound 256, 2-[(6-Furan-3-yl-8-trifluoromethyl-imidazo[1,2-a]pyridine-2-carbonyl)-amino]-3-methyl-butyric acid methyl ester] showed an EC50 greater than 50 µM. For `COC(=O)C(CCCCNC(=O)OC(C)(C)C)NC(=O)c1cn2cc(-c3ccoc3)cc(C(F)(F)F)c2n1` (centres unmarked) [Compound 257, 6-tert-Butoxycarbonylamino-2-[(6-furan-3-yl-8-trifluoromethyl-imidazo[1,2-a]pyridine-2-carbonyl)-amino]-hexanoic acid methyl ester], the EC50 was greater than 50 µM. In the case of `NCCc1cn2cc(-c3ccoc3)cc(C(F)(F)F)c2n1` [Compound 258, 2-(6-Furan-3-yl-8-trifluoromethyl-imidazo[1,2-a]pyridin-2-yl)-ethylamine], the EC50 is reported as greater than 50 µM. In the case of `CC(=O)NC(CO)C(=O)NCc1cn2cc(-c3ccoc3)cc(C(F)(F)F)c2n1` (centres unmarked) [Compound 259, 2-Acetylamino-N-(6-furan-3-yl-8-trifluoromethyl-imidazo[1,2-a]pyridin-2-ylmethyl)-3-hydroxy-propionamide], the EC50 is reported as greater than 50 µM. For `CC(=O)NC(Cc1ccccc1)C(=O)NCc1cn2cc(-c3ccoc3)cc(C(F)(F)F)c2n1` (centres unmarked) [Compound 260, 2-Acetylamino-N-(6-furan-3-yl-8-trifluoromethyl-imidazo[1,2-a]pyridin-2-ylmethyl)-3-phenyl-propionamide], the EC50 was greater than 50 µM. With `CC(=O)NC(C(=O)NCc1cn2cc(-c3ccoc3)cc(C(F)(F)F)c2n1)C(C)C` (centres unmarked) [Compound 261, 2-Acetylamino-N-(6-furan-3-yl-8-trifluoromethyl-imidazo[1,2-a]pyridin-2-ylmethyl)-3-methyl-butyramide] the EC50 was greater than 50 µM. Compound `CC(C(=O)NCc1cn2cc(-c3ccoc3)cc(C(F)(F)F)c2n1)N(C)C` (centres unmarked) [Compound 262, 2-Dimethylamino-N-(6-furan-3-yl-8-trifluoromethyl-imidazo[1,2-a]pyridin-2-ylmethyl)-propionamide] has an EC50 greater than 50 µM. In the case of `O=C(NCCc1cn2cc(-c3ccoc3)cc(C(F)(F)F)c2n1)c1cccs1` [Compound 263, Thiophene-2-carboxylic acid [2-(6-furan-3-yl-8-trifluoromethyl-imidazo[1,2-a]pyridin-2-yl)-ethyl]-amide], the EC50 is reported as greater than 50 µM. In the case of `O=C(O)CNC(=O)c1cn2cc(-c3ccoc3)cc(C(F)(F)F)c2n1` [Compound 264, [(6-Furan-3-yl-8-trifluoromethyl-imidazo[1,2-a]pyridine-2-carbonyl)-amino]-acetic acid], the EC50 is reported as greater than 50 µM. For `CC(NC(=O)c1cn2cc(-c3ccoc3)cc(C(F)(F)F)c2n1)C(=O)O` (centres unmarked) [Compound 265, 2-[(6-Furan-3-yl-8-trifluoromethyl-imidazo[1,2-a]pyridine-2-carbonyl)-amino]-propionic acid], the EC50 was greater than 50 µM. For `CSCCC(NC(=O)c1cn2cc(-c3ccoc3)cc(C(F)(F)F)c2n1)C(=O)O` (centres unmarked) [Compound 266, 2-[(6-Furan-3-yl-8-trifluoromethyl-imidazo[1,2-a]pyridine-2-carbonyl)-amino]-4-methylsulfanyl-butyric acid], the EC50 was greater than 50 µM. `O=C(NC(CO)C(=O)O)c1cn2cc(-c3ccoc3)cc(C(F)(F)F)c2n1` (centres unmarked) [Compound 267, 2-[(6-Furan-3-yl-8-trifluoromethyl-imidazo[1,2-a]pyridine-2-carbonyl)-amino]-3-hydroxy-propionic acid] was tested, and the EC50 was greater than 50 µM. `O=C(c1nc2c(C(F)(F)F)cc(-c3ccoc3)cn2c1Cl)N1CCC(S(=O)(=O)c2ccccc2)CC1` [Compound 268, (4-Benzenesulfonyl-piperidin-1-yl)-(3-chloro-6-furan-3-yl-8-trifluoromethyl-imidazo[1,2-a]pyridin-2-yl)-methanone] gave an EC50 greater than 50 µM. `CC(O)C(NC(=O)c1cn2cc(-c3ccoc3)cc(C(F)(F)F)c2n1)C(=O)O` (centres unmarked) [Compound 269, 2-[(6-Furan-3-yl-8-trifluoromethyl-imidazo[1,2-a]pyridine-2-carbonyl)-amino]-3-hydroxy-butyric acid] gave an EC50 greater than 50 µM. Compound `CC(C)CC(NC(=O)c1cn2cc(-c3ccoc3)cc(C(F)(F)F)c2n1)C(=O)O` (centres unmarked) [Compound 270, 2-[(6-Furan-3-yl-8-trifluoromethyl-imidazo[1,2-a]pyridine-2-carbonyl)-amino]-4-methyl-pentanoic acid] has an EC50 greater than 50 µM. `O=C(NC(C(=O)O)c1ccccc1)c1cn2cc(-c3ccoc3)cc(C(F)(F)F)c2n1` (centres unmarked) [Compound 271, [(6-Furan-3-yl-8-trifluoromethyl-imidazo[1,2-a]pyridine-2-carbonyl)-amino]-phenyl-acetic acid] showed an EC50 greater than 50 µM. `CC(C)C(NC(=O)c1cn2cc(-c3ccoc3)cc(C(F)(F)F)c2n1)C(=O)O` (centres unmarked) [Compound 272, 2-[(6-Furan-3-yl-8-trifluoromethyl-imidazo[1,2-a]pyridine-2-carbonyl)-amino]-3-methyl-butyric acid] was tested, and the EC50 was greater than 50 µM. `CC(C)(C)C(NC(=O)c1cn2cc(-c3ccoc3)cc(C(F)(F)F)c2n1)C(=O)O` (centres unmarked) [Compound 273, 2-[(6-Furan-3-yl-8-trifluoromethyl-imidazo[1,2-a]pyridine-2-carbonyl)-amino]-3,3-dimethyl-butyric acid] was tested, and the EC50 was greater than 50 µM. Compound `O=C(Cc1cccs1)NCCc1cn2cc(-c3ccoc3)cc(C(F)(F)F)c2n1` [Compound 274, N-[2-(6-Furan-3-yl-8-trifluoromethyl-imidazo[1,2-a]pyridin-2-yl)-ethyl]-2-thiophen-2-yl-acetamide] has an EC50 greater than 50 µM. For `O=C(NCCc1cn2cc(-c3ccoc3)cc(C(F)(F)F)c2n1)C1CC1` [Compound 275, Cyclopropanecarboxylic acid [2-(6-furan-3-yl-8-trifluoromethyl-imidazo[1,2-a]pyridin-2-yl)-ethyl]-amide], the EC50 was greater than 50 µM. For `COC(=O)CCNC(=O)c1cn2cc(-c3ccoc3)cc(C(F)(F)F)c2n1` [Compound 276, 3-[(6-Furan-3-yl-8-trifluoromethyl-imidazo[1,2-a]pyridine-2-carbonyl)-amino]-propionic acid methyl ester], the EC50 was greater than 50 µM. Compound `CC(NC(=O)c1cn2cc(-c3ccoc3)cc(C(F)(F)F)c2n1)C(N)=O` (centres unmarked) [Compound 277, 6-Furan-3-yl-8-trifluoromethyl-imidazo[1,2-a]pyridine-2-carboxylic acid (1-carbamoyl-ethyl)-amide] has an EC50 greater than 50 µM. For `CC(C)C(NC(=O)c1cn2cc(-c3ccoc3)cc(C(F)(F)F)c2n1)C(N)=O` (centres unmarked) [Compound 278, 6-Furan-3-yl-8-trifluoromethyl-imidazo[1,2-a]pyridine-2-carboxylic acid (1-carbamoyl-2-methyl-propyl)-amide], the EC50 was greater than 50 µM. With `NC(=O)C(CO)NC(=O)c1cn2cc(-c3ccoc3)cc(C(F)(F)F)c2n1` (centres unmarked) [Compound 279, 6-Furan-3-yl-8-trifluoromethyl-imidazo[1,2-a]pyridine-2-carboxylic acid (1-carbamoyl-2-hydroxy-ethyl)-amide] the EC50 was greater than 50 µM. `NC(=O)C1CCCN1C(=O)c1cn2cc(-c3ccoc3)cc(C(F)(F)F)c2n1` (centres unmarked) [Compound 280, 1-(6-Furan-3-yl-8-trifluoromethyl-imidazo[1,2-a]pyridine-2-carbonyl)-pyrrolidine-2-carboxylic acid amide] was tested, and the EC50 was greater than 50 µM.
